Test results from article PMC8615111, “Phenolic Thiazoles with Antioxidant and Antiradical Activity. Synthesis, In Vitro Evaluation, Toxicity, Electrochemical Behavior, Quantum Studies and Antimicrobial Screening” (Antioxidants, 2021).
Read-outs that look alike come from different tables or passages of the source. Marks after values point to notes of the source that are not given here.

Columns and labels:
[1] = parameters: method as in doi:10.1016/j.molstruc.2021.131278; conditions: cited from earlier work
[2] = parameters: method as in doi:10.1016/j.molstruc.2021.131278; conditions: cited from earlier work; remark: listed apart in the source
[3] = parameters: method as in doi:10.1016/j.molstruc.2021.131278; conditions: cited from earlier work; remark: listed apart in the source
Cu^2+ chelation assay = assay type: biochemical
[4] = DPPH˙ radical scavenging assay; assay type: biochemical; conditions: for IC50: DPPH˙ scavenging
Method: The 2,2-diphenyl-1-picrylhydrazyl (DPPH˙) radical scavenging assay is based on the transfer of one hydrogen from the analyzed compound to the violet radical DPPH˙. This will convert it to a yellow compound, the change in absorbance being proportional to the amount of DPPH˙ neutralized, according to Brand-Williams et al..
The preparation of the DPPH˙ reagent was previously reported by our group. […] Over the previous quantities, DMSO was added until a total volume of 50 µL was obtained in all cuvettes, and 1950 µL of DPPH˙ solution was added to all cuvettes; then, they were shaken for well over 10 min in the dark at room temperature. The absorbances of the solutions were measured at λ = 517 nm. The DPPH˙ radical scavenging activity of evaluated compounds was calculated using Equation (2):(2) DPPH scavenging (%)=control absorbance−sample absorbance/control absorbance×100

HaCaT cells = HaCaT cells integrity, acridine orange staining; assay type: cell-based, human; conditions: treatment at IC50 concentration for 24 h
Method: The cells were left to attach to 10 mm Ø glass slides for 24 h, at a confluence of 3 × 10^4 cells/glass slide. The slides were incubated for 10 min in acridine orange 1 µM in PBS 0.01M, and then the slides were investigated with an epifluorescence microscope Optika 510LD1 with 5 MP CCD cameras at 525 nm (green filter).

[5] = Scavenging of hydrogen peroxide by cyclic voltammetry on Au SPE; conditions: 0.5 mM H2O2, 0.5 mM compound, 0.1 M KCl
Method: The antioxidant properties were evaluated in terms of their activity against some free radicals, and other compounds reported in the literature, relevant for this purpose, such as: • ferric ions (Fe^3+)—used to test the reduction of the antioxidant character of the compounds; • DPPH˙ free radical– used to test the scavenging effect of the compounds on this radical; • hydrogen peroxide (H2O2)—used to test the scavenging effect of the synthesized molecules on this compound; • 2,2,6,6-tetramethylpiperidinyl-1-oxy (TEMPO)—used to test the scavenging effect of the synthesized molecules on this compound.
The anodic oxidation of H2O2 was used to determine the antioxidant character of compounds in different samples. Gold-based SPEs purchased from Dropsens were used as working electrode for monitoring the change in the oxidation peak of hydrogen peroxide due to the addition of different amounts of the novel compounds. The oxidation signal of H2O2 obtained at the sweep of the potential in the range from −0.5 to 1.2 V on the gold electrode can be observed in Figure A6. The scavenging abilities of compounds from 1 to 8 on […] are compared in this figure. The addition of an antioxidant, by its ability to consume H2O2, determines the decrease of anodic peak characteristic for H2O2. […]

Row | SMILES | Chelation Capacity (%), cupric ions (Cu^2+ chelation assay; 3.36 µg/mL) [%] | Chelation Capacity (%), cupric ions (Cu^2+ chelation assay; 6.72 µg/mL) [%] | Chelation Capacity (%), cupric ions (Cu^2+ chelation assay; 10.08 µg/mL) [%] | Chelation Capacity (%), cupric ions (Cu^2+ chelation assay; 13.44 µg/mL) [%] | Chelation Capacity (%), cupric ions (Cu^2+ chelation assay; 16.80 µg/mL) [%] | % of DPPH˙ Scavenged ([4]; 1 µg/mL) [%] | % of DPPH˙ Scavenged ([4]; 1.5 µg/mL) [%] | % of DPPH˙ Scavenged ([4]; 2 µg/mL) [%] | % of DPPH˙ Scavenged ([4]; 3 µg/mL) [%] | % of DPPH˙ Scavenged ([4]; 5 µg/mL) [%] | IC50 [4] [µg/mL] | other results
1 | C/C(=N\Nc1nc(C)cs1)c1ccc(O)cc1O [Compound 5a, Dihydroxy-Phenyl-Thiazol-Hydrazinium chloride] | 10.74 | 14.51 | 20.10 | 28.62 | 33.67 |  |  |  |  |  |  | % of DPPH˙ Scavenged ([1]; 1 µg/mL): 13.11 * %; % of DPPH˙ Scavenged ([1]; 1.5 µg/mL): 20.68 * %; % of DPPH˙ Scavenged ([1]; 2 µg/mL): 28.87 * %; % of DPPH˙ Scavenged ([1]; 3 µg/mL): 48.22 * %; % of DPPH˙ Scavenged ([1]; 5 µg/mL): 79.92 * %; IC50 ([1]; DPPH˙ scavenging): 3.20 * µg/mL; Chelation Capacity (%), ferrous ions ([2]; 50 µg/mL): 0.27 * %; Chelation Capacity (%), ferrous ions ([2]; 100 µg/mL): 5.06 * %; % of ABTS˙^+ Scavenged ([3]; 0.5 µg/mL): 32.42 * %; % of ABTS˙^+ Scavenged ([3]; 0.75 µg/mL): 37.23 * %; % of ABTS˙^+ Scavenged ([3]; 1 µg/mL): 41.36 * %; % of ABTS˙^+ Scavenged ([3]; 1.5 µg/mL): 49.77 * %; % of ABTS˙^+ Scavenged ([3]; 2.5 µg/mL): 70.60 * %; IC50 ([3]; ABTS˙^+ scavenging): 1.45 * µg/mL
2 | Cc1csc(N/N=C/c2ccc(O)cc2O)n1.Cl [Compound 5b, (E)-2-(2,4-dihydroxybenzylidene)-1-(4-methylthiazol-2-yl)hydrazin-1-ium chloride] | 11.58 | 15.60 | 22.76 | 28.99 | 34.10 | 16.46 | 24.42 | 34.44 | 52.10 | 87.08 | 2.90 | 
3 | Br.C/C(=N\Nc1nc(-c2ccccc2)cs1)c1ccc(O)cc1O [Compound 6a, (E)-2-(1-(2,4-dihydroxyphenyl)ethylidene)-1-(4-phenylthiazol-2-yl)hydrazin-1-ium bromide] | 6.33 | 10.30 | 13.65 | 15.90 | 18.67 | 5.90 | 9.07 | 12.87 | 19.88 | 38.13 | 6.56 | 
4 | Br.Oc1ccc(/C=N/Nc2nc(-c3ccccc3)cs2)c(O)c1 [Compound 6b, (E)-2-(2,4-dihydroxybenzylidene)-1-(4-phenylthiazol-2-yl)hydrazin-1-ium bromide] | 3.84 | 6.80 | 10.44 | 14.34 | 17.07 | 10.60 | 13.62 | 17.23 | 23.89 | 41.22 | 6.23 | 
5 | Br.C/C(=N\Nc1nc(-c2ccc(O)c(C(N)=O)c2)cs1)c1ccc(O)cc1O [Compound 7a, (E)-1-(4-(3-carbamoyl-4-hydroxyphenyl)thiazol-2-yl)-2-(1-(2,4-dihydroxyphenyl)ethylidene)hydrazin-1-ium bromide] | 8.76 | 16.70 | 26.63 | 34.35 | 38.88 | 20.01 | 22.10 | 26.75 | 32.43 | 49.27 | 5.19 | morphological effect on HaCaT cells, acridine orange staining (HaCaT cells): induced a necroptotic aspect of the cells
6 | Br.NC(=O)c1cc(-c2csc(N/N=C/c3ccc(O)cc3O)n2)ccc1O [Compound 7b, (E)-1-(4-(3-carbamoyl-4-hydroxyphenyl)thiazol-2-yl)-2-(2,4-dihydroxybenzylidene) hydrazin-1-ium bromide] | 7.23 | 11.41 | 14.46 | 19.40 | 22.72 | 24.01 | 26.00 | 30.41 | 35.81 | 51.80 | 4.84 | 
7 | C/C(=N\Nc1nc(-c2ccc(O)c(O)c2)cs1)c1ccc(O)cc1O.Cl [Compound 8a, (E)-2-(1-(2,4-dihydroxyphenyl)ethylidene)-1-(4-(3,4-dihydroxyphenyl)thiazol-2-yl)hydrazin-1-ium chloride] | 11.13 | 17.02 | 25.14 | 34.16 | 38.91 | 25.05 | 31.43 | 36.02 | 47.13 | 68.90 | 3.26 | morphological effect on HaCaT cells, acridine orange staining (HaCaT cells): induced nuclear fragmentation; scavenging effect on H2O2 [5]: highest scavenging effect
8 | Cl.Oc1ccc(/C=N/Nc2nc(-c3ccc(O)c(O)c3)cs2)c(O)c1 [Compound 8b, (E)-2-(2,4-dihydroxybenzylidene)-1-(4-(3,4-dihydroxyphenyl)thiazol-2-yl)hydrazin-1-ium chloride] | 7.34 | 11.97 | 16.62 | 20.30 | 26.71 | 39.38 | 47.41 | 54.37 | 67.84 | 91.38 | 1.72 | 
